Test system: GFP+ bone marrow cells in the viable tumor rim of LLC tumors
Experiment: Homing/invasion of GFP+ bone marrow cells (CEPs) to the viable tumor rim and incorporation into CD31+ tumor vasculature, confocal microscopy of LLC tumor sections
Format: in vivo, mice
Settings: 3 days after treatment
From the text: Integrin ∘4β1 (VLA4) promotes the homing of circulating cells to the α4β1 ligand binding (VCAM) expressed at the tumor site (Jin et al. 2006. J Clin Invest 116:652-662). […] We determined whether α4β1 integrin contributes to CEP and possibly other types of bone-marrow pro-angiogenic cell invasion and homing to the viable tumor rim after VDA treatment. To this end, green fluorescent protein (GFP)positive bone marrow cells obtained from syngeneic UBI/GFP/BL6 donor mice (The Jackson Laboratory, Bar Harbor, Me.) were transplanted into lethally irradiated C57Bl/6 recipient mice (as described in Theise, et al. 2000. Hepatology 31:235-240). Three weeks later, mice were subcutaneously (s.c.) implanted with 0.5×10^6 Lewis Lung Carcinoma (LLC) cells (ATCC, Manassas, Va.).
When tumors reached 500 mm^3, mice were treated with an integrin α4β1 specific blocking antibody (Jin 2006), CA1P, or a combination of the two agents. After 3 days, tumor volumes were measured, mice were sacrificed and tumors were removed for the evaluation of necrosis (FIG. 1A) and incorporation of bone marrow cells to the tumor vasculature (FIG. 1B). […] FIG. 1C provides tumor volumes measured three days after treatment and normalized to untreated control tumors. *: 0.05>p>0.01; **: p<0.01. Tumor size was assessed with Vernier calipers by using the formula width^2×length×0.5. […]

## COc1cc(/C=C\c2ccc(OC)c(OP(=O)(O)O)c2OP(=O)(O)O)cc(OC)c1OC [CA1P, combretastatin A-1 diphosphate]
  invasion/homing of GFP+ cells (bone marrow cells) in the viable tumor rim (FIG. 1B): massive invasion of GFP^+ cells
CD31 staining
  incorporation of GFP+ cells into blood vessels (colocalization of GFP+ and CD31+ cells, FIG. 1B): some of which were found to incorporate into blood vessels
